Laboratory results reported in the supplement of paper PMC10307832.

Key:
Crizotinib + Linsitinib = compound: C[C@@H](Oc1cc(-c2cnn(C3CCNCC3)c2)cnc1N)c1c(Cl)ccc(F)c1Cl [Crizotinib] + C[C@]1(O)C[C@@H](c2nc(-c3ccc4ccc(-c5ccccc5)nc4c3)c3c(N)nccn32)C1 [Linsitinib] (partner 1 µM); assay: relative viability (nuclei count vs DMSO), 5 days (fraction); higher = more cells survive
Summary of the method: (§1)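 Five library-drug doses in √10 steps were combined with a fixed anchor-drug dose, or a single drug was given alone, by pin tool to lung cancer cell lines in 1536-well plates the day after seeding. Nuclei were stained and counted after 5 days. Relative viability is the nuclei count in treated wells over that in vehicle wells, taken as the median of duplicate plates.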

Crizotinib + Alpelisib = compound: C[C@@H](Oc1cc(-c2cnn(C3CCNCC3)c2)cnc1N)c1c(Cl)ccc(F)c1Cl [Crizotinib] + Cc1nc(NC(=O)N2CCC[C@H]2C(N)=O)sc1-c1ccnc(C(C)(C)C(F)(F)F)c1 [Alpelisib] (partner 2 µM); assay: as above
Summary of the method: as §1

| Cell Line | relative viability (Crizotinib + Linsitinib; first compound 0.01 µM) | relative viability (Crizotinib + Linsitinib; first compound 0.1 µM) | relative viability (Crizotinib + Linsitinib; first compound 0.3162 µM) | relative viability (Crizotinib + Linsitinib; first compound 1 µM) | relative viability (Crizotinib + Alpelisib; first compound 0.1 µM) | relative viability (Crizotinib + Alpelisib; first compound 0.3162 µM) | relative viability (Crizotinib + Alpelisib; first compound 1 µM) | relative viability (Crizotinib + Linsitinib; first compound 0.03162 µM) | relative viability (Crizotinib + Alpelisib; first compound 0.01 µM) | relative viability (Crizotinib + Alpelisib; first compound 0.03162 µM) |
| --- | --- | --- | --- | --- | --- | --- | --- | --- | --- | --- |
| 201T | 1.02 | 1.04 | 1.03 | 1.12 | 1.03 | 1.04 | 1.06 | – | – | – |
| A549 | 0.527 | 0.52 | – | 0.707 | 0.738 | 0.677 | 0.793 | 0.568 | 0.657 | 0.804 |
| A-427 | 1.1 | 1.16 | – | 1.1 | 1.11 | – | 1.06 | 1.12 | 1.04 | 1.05 |
| ABC-1 | 0.95 | 1.12 | 1.09 | – | 1.22 | 1.02 | 0.976 | 0.843 | 0.964 | 1.15 |
| BEN | 0.843 | 0.818 | 1.04 | 0.916 | 0.864 | 1.26 | 1.12 | 0.844 | 0.925 | 0.992 |
| CAL-12T | 0.753 | 0.708 | 0.748 | – | 1.28 | 1.13 | 1.36 | 0.904 | 1.19 | 1.35 |
| COR-L23 | – | 0.844 | 0.802 | 0.925 | 0.659 | 0.758 | 0.665 | 0.876 | 0.81 | 0.77 |
| COR-L 105 | 1.14 | 0.929 | 0.956 | 0.972 | 0.972 | 0.88 | 0.828 | 1 | – | 0.872 |
| Calu-6 | 0.939 | 0.861 | 0.938 | 0.955 | 0.988 | 0.925 | 1.06 | 1.05 | 0.944 | – |
| EBC-1 | – | 0.889 | 0.159 | 0.167 | 0.543 | 0.202 | 0.269 | 0.886 | 0.746 | 0.823 |
| EKVX | 1 | 1.02 | 1 | 0.975 | 0.792 | 0.905 | 0.864 | 0.998 | 0.849 | 0.967 |
| EMC-BAC-2 | 0.758 | 0.809 | 0.798 | 0.81 | 0.715 | – | 0.781 | 0.834 | 0.76 | 0.818 |
| EPLC-272H | 1.18 | 1.17 | 1.14 | 1.27 | 0.942 | 0.864 | 1.02 | 1.11 | 0.862 | 0.854 |
| H3255 | 0.806 | 0.974 | 0.841 | 0.962 | 0.705 | 0.62 | 0.639 | 0.924 | 0.622 | 0.73 |
| HARA | 0.919 | 0.778 | 0.976 | 0.873 | 0.863 | 0.881 | 0.767 | 0.978 | 0.859 | 0.836 |
| HCC-15 | 0.819 | 0.864 | 0.886 | 0.946 | 0.906 | 0.848 | 0.956 | 0.934 | 0.846 | 0.938 |
| HCC-44 | 0.646 | 0.595 | 0.704 | 0.719 | 0.853 | 0.744 | 0.815 | 0.721 | 0.808 | 0.801 |
| HCC-78 | 0.489 | 0.459 | 0.433 | 0.372 | 0.299 | 0.279 | 0.223 | 0.529 | 0.278 | 0.292 |

| Cell Line | relative viability (Crizotinib + Linsitinib; first compound 0.01 µM) | relative viability (Crizotinib + Linsitinib; first compound 0.1 µM) | relative viability (Crizotinib + Linsitinib; first compound 0.3162 µM) | relative viability (Crizotinib + Linsitinib; first compound 1 µM) | relative viability (Crizotinib + Alpelisib; first compound 0.1 µM) | relative viability (Crizotinib + Alpelisib; first compound 0.3162 µM) | relative viability (Crizotinib + Alpelisib; first compound 1 µM) | relative viability (Crizotinib + Linsitinib; first compound 0.03162 µM) | relative viability (Crizotinib + Alpelisib; first compound 0.01 µM) | relative viability (Crizotinib + Alpelisib; first compound 0.03162 µM) |
| --- | --- | --- | --- | --- | --- | --- | --- | --- | --- | --- |
| HCC-366 | 0.64 | 0.649 | – | 0.608 | 0.382 | – | 0.343 | 0.679 | 0.547 | 0.485 |
| HCC-827 | 0.927 | – | 0.946 | 0.958 | 0.938 | 0.859 | – | 0.931 | 0.896 | 0.944 |
| HOP-62 | 0.81 | 1.1 | 0.956 | 0.816 | 0.731 | 0.964 | 1.08 | 0.946 | 0.93 | 1 |
| IA-LM | 0.611 | 0.649 | 0.507 | 0.609 | 0.805 | 0.737 | 0.675 | 0.748 | 0.726 | 0.814 |
| LC-2-ad | 0.872 | 0.762 | – | 0.852 | 1.01 | – | 0.895 | 0.879 | 0.839 | 0.981 |
| LCLC-97TM1 | 0.17 | 0.177 | 0.19 | 0.168 | 0.24 | 0.265 | 0.273 | 0.195 | 0.199 | 0.232 |
| LCLC-103H | 0.985 | 1 | 1.15 | 1.3 | 1.05 | 1.13 | 1.01 | 1.07 | 0.917 | 0.98 |
| LK-2 | 0.431 | 0.541 | 0.458 | 0.709 | 0.898 | 1.3 | 1.14 | 0.523 | 1.14 | 0.885 |
| LOU-NH91 | 0.902 | 0.963 | 0.991 | 0.939 | 0.72 | 0.707 | 0.742 | 0.916 | 0.648 | 0.682 |
| LU99A | 0.477 | 0.528 | 0.486 | 0.579 | 0.508 | 0.442 | 0.558 | 0.541 | 0.549 | 0.501 |
| LXF-289 | 0.91 | 0.983 | 0.906 | 0.937 | 1.01 | 0.987 | 1.03 | 0.972 | 0.968 | 1.07 |
| NCI-H23 | 0.557 | 0.619 | – | 0.774 | 0.572 | – | 0.724 | 0.642 | 0.691 | 0.662 |
| NCI-H322M | 0.811 | 1 | 0.96 | 0.903 | 0.773 | 0.916 | 0.789 | 0.954 | 0.791 | – |
| NCI-H358 | 0.663 | 0.744 | 0.779 | 0.899 | 0.798 | 0.852 | 0.759 | 0.658 | 0.81 | 0.802 |
| NCI-H441 | 0.564 | 0.575 | 0.382 | 0.551 | 0.859 | – | 0.711 | 0.498 | 0.795 | 0.648 |
| NCI-H460 | 0.736 | 0.718 | 0.847 | – | 0.46 | 0.504 | 0.442 | 0.84 | 0.495 | 0.404 |
| NCI-H520 | 0.831 | 0.985 | 1.04 | 1.05 | 0.891 | 1.07 | 0.962 | 0.97 | 0.726 | 0.92 |
